# Read-outs that look alike come from different tables or passages of the source.
# Experiments:
# [1] = target: T1, CDK5/p35 (Homo sapiens, UniProt Q00535); test: CDK5/p35 kinase inhibition (33P-ATP, histone H1); format: biochemical; conditions: 0.15 μM ATP
# T1 construct: purchased ProQinase GmbH
# Procedure: CDK2/Cyclin E kinase was produced in Sf9 insect cells via baculoviral infection and purified on a NiNTA column (Qiagen). […] CDK5/p35 was purchased from ProQinase GmbH.
# (§1) The reactions were stopped by adding 5 μL of 3% aq H3PO4. Aliquots were spotted onto P-81 phosphocellulose (Whatman), washed 3× with 0.5% aq H3PO4 and finally air-dried.
# [2] = tested on: K562 (human chronic myelogenous leukaemia); test: MTT cytotoxicity assay, leukemic cell line K562; format: cell-based; conditions: three days
# Excerpt: (§2) Cytotoxicity of the compounds is the major property determining their antileukemic efficacy in vivo. One of the parameters used, as the basis for cytotoxicity assays, is the metabolic activity of viable cells. For example, a microtiter assay, which uses (3-(4,5-dimethylthiazol-2-yl)-2,5-diphenyltetrazolium bromide (MTT), is widely used to quantitate cell proliferation and cytotoxicity. This assay is widely used in drug screening programs and in chemosensitivity testing. Because only metabolically active living cells reduce MTT to correspond purple formazan dye, these assays detect viable cells exclusively. The quantity of reduced MTT corresponds to the number of vital cells in the culture.
# (§3) The compounds were assayed using the following leukemic cell lines: K562 (human chronic myelogenous leukaemia), HL60 (human promyelocytic leukaemia), CEM (human lymphoblastoid leukaemia), THP1 (human monocytic cell line), MV4; 11 (acute myelocytic leukemia). All cell lines were grown in RPMI medium supplemented with fetal bovine serum and L-glutamine and maintained at 37° C. in a humidified atmosphere with 5% CO2. For cytotoxicity assays, 2000-5000 cells were seeded into each well of 96 well plate, allowed to stabilize for at least 8 h and then tested compounds were added at various concentrations ranging from 100 to 0.01 μM in triplicates. After three days, MTT solution (5 mg/ml; Sigma, St. Louis, USA) was added to cells and medium was replaced with DMSO after five hours. The absorbance was measured at 620 nm by employing a microplate reader. MTT assays were repeated 3 times for each drug application and untreated cells were used as reference.
# [3] = tested on: HL60 (human promyelocytic leukaemia); test: MTT cytotoxicity assay, leukemic cell line HL60; format: cell-based; conditions: three days
# Excerpt: as §2, §3
# [4] = tested on: THP1 (human monocytic cell line); test: MTT cytotoxicity assay, leukemic cell line THP1; format: cell-based; conditions: three days
# Excerpt: as §2, §3
# [5] = tested on: MV4;11 (acute myelocytic leukemia); test: MTT cytotoxicity assay, leukemic cell line MV4;11; format: cell-based; conditions: three days
# Excerpt: as §2, §3
# [6] = tested on: CEM (human lymphoblastoid leukaemia); test: MTT cytotoxicity assay, leukemic cell line CEM; format: cell-based; conditions: three days
# Excerpt: as §2, §3
# [7] = target: T2, CDK2/Cyclin E (Homo sapiens, UniProt P24941); test: CDK2/Cyclin E kinase inhibition (33P-ATP, histone H1); format: biochemical; conditions: 15 μM ATP
# T2 construct: made in house; host or cells: Sf9 insect cells (baculovirus)
# Procedure: CDK2/Cyclin E kinase was produced in Sf9 insect cells via baculoviral infection and purified on a NiNTA column (Qiagen). The kinase reactions were assayed with 1 mg/mL histone H1 in the presence of 15 μM ATP, 0.05 μCi [γ-^33P]ATP and of the test compound in a final volume of 10 μL, all in a reaction buffer (60 mM HEPES-NaOH, pH 7.5, 3 mM MgCl2, 3 mM MnCl2, 3 μM Na-orthovanadate, 1.2 mM DTT, 2.5 μg/50 μl PEG20.000). CDK5/p35 was purchased from ProQinase GmbH. The kinase reactions were assayed with 1 mg/mL histone H1 in the presence of 0.15 μM ATP, 0.05 μCi [γ-^33P]ATP and of the test compound in a final volume of 10 μL, all in a reaction buffer (60 mM HEPES-NaOH, pH 7.5, 3 mM MgCl2, 3 mM MnCl2, 3 μM Na-orthovanadate, 1.2 mM DTT, 2.5 μg/50 μl PEG20.000).
# as §1
# [8] = tested on: HCT116 (colon carcinoma); test: MTT cytotoxicity assay, solid cancer cell line HCT116; format: cell-based; conditions: Homo sapiens, HCT-116, 72 h, three days
# Procedure: as §3, with “following” for “following leukemic”, “G361 (malignant melanoma), MCF7 (breast adenocarcinoma), PLC/PRF/5 (liver hepatoma), PANC-1 (pancreatic carcinoma) and HCT116 (colon carcinoma).” for “K562 (human chronic myelogenous leukaemia), HL60 (human promyelocytic leukaemia), CEM (human lymphoblastoid leukaemia), THP1 (human monocytic cell line), MV4; 11 (acute myelocytic leukemia).”, “DMEM” for “RPMI”, “4000-10000” for “2000-5000”, “of a” for “of”, “16” for “8”
# [9] = tested on: MCF7 (breast adenocarcinoma); test: MTT cytotoxicity assay, solid cancer cell line MCF7; format: cell-based; conditions: Homo sapiens, MCF7, 72 h, three days
# Procedure: as §3, with “following” for “following leukemic”, “G361 (malignant melanoma), MCF7 (breast adenocarcinoma), PLC/PRF/5 (liver hepatoma), PANC-1 (pancreatic carcinoma) and HCT116 (colon carcinoma).” for “K562 (human chronic myelogenous leukaemia), HL60 (human promyelocytic leukaemia), CEM (human lymphoblastoid leukaemia), THP1 (human monocytic cell line), MV4; 11 (acute myelocytic leukemia).”, “DMEM” for “RPMI”, “4000-10000” for “2000-5000”, “of a” for “of”, “16” for “8”
# [10] = tested on: PLC/PRF/5 (liver hepatoma); test: MTT cytotoxicity assay, solid cancer cell line PLC/PRF/5; format: cell-based; conditions: Homo sapiens, PLC-PRF-5, 72 h, three days
# Procedure: as §3, with “following” for “following leukemic”, “G361 (malignant melanoma), MCF7 (breast adenocarcinoma), PLC/PRF/5 (liver hepatoma), PANC-1 (pancreatic carcinoma) and HCT116 (colon carcinoma).” for “K562 (human chronic myelogenous leukaemia), HL60 (human promyelocytic leukaemia), CEM (human lymphoblastoid leukaemia), THP1 (human monocytic cell line), MV4; 11 (acute myelocytic leukemia).”, “DMEM” for “RPMI”, “4000-10000” for “2000-5000”, “of a” for “of”, “16” for “8”
# [11] = tested on: G361 (malignant melanoma); test: MTT cytotoxicity assay, solid cancer cell line G361; format: cell-based; conditions: Homo sapiens, G-361, 72 h, three days
# Procedure: as §3, with “following” for “following leukemic”, “G361 (malignant melanoma), MCF7 (breast adenocarcinoma), PLC/PRF/5 (liver hepatoma), PANC-1 (pancreatic carcinoma) and HCT116 (colon carcinoma).” for “K562 (human chronic myelogenous leukaemia), HL60 (human promyelocytic leukaemia), CEM (human lymphoblastoid leukaemia), THP1 (human monocytic cell line), MV4; 11 (acute myelocytic leukemia).”, “DMEM” for “RPMI”, “4000-10000” for “2000-5000”, “of a” for “of”, “16” for “8”
# [12] = tested on: HUVECs (human umbilical vein endothelial cells); test: HUVEC proliferation assay (crystal violet); format: cell-based; conditions: 72 h, read-out: Inhibition of proliferation (EC50)
# Procedure: To verify that novel compounds have anti-vascularisation properties, we analyzed their influence on the proliferation and migration of HUVECs. HUVECs (human umbilical vein endothelial cells) were purchased from Promocell (Heidelberg, Germany) and cultured in endothelial cell growth medium (ECGM, Promocell, Heidelberg, Germany) containing 10% FCS (Biochrom, Berlin, Germany). Experiments were performed using cells at passage 3.
# For proliferation assay, 1.5×10^3 HUVECs were cultured for 24 h. Afterwards, cells were either left untreated or treated with novel compounds for 72 h. Proliferation assay was performed using crystal violet as described previously (Koltermann et al. 2007, Cell Mol. Life Sci. 64:1715-1722).
# [13] = tested on: PANC-1 (pancreatic carcinoma); test: MTT cytotoxicity assay, solid cancer cell line PANC-1; format: cell-based; conditions: Homo sapiens, PANC-1, 72 h, three days
# Procedure: as §3, with “following” for “following leukemic”, “G361 (malignant melanoma), MCF7 (breast adenocarcinoma), PLC/PRF/5 (liver hepatoma), PANC-1 (pancreatic carcinoma) and HCT116 (colon carcinoma).” for “K562 (human chronic myelogenous leukaemia), HL60 (human promyelocytic leukaemia), CEM (human lymphoblastoid leukaemia), THP1 (human monocytic cell line), MV4; 11 (acute myelocytic leukemia).”, “DMEM” for “RPMI”, “4000-10000” for “2000-5000”, “of a” for “of”, “16” for “8”
# T1 sequence (Q00535 whole entry): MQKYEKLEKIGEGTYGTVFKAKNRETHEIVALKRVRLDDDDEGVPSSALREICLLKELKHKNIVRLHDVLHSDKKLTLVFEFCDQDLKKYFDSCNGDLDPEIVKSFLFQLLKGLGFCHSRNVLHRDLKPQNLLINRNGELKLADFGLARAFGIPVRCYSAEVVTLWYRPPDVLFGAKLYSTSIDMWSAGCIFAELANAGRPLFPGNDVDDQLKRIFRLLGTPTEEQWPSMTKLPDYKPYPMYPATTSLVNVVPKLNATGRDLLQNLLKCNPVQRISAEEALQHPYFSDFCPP
# T1 sequence (Q15078 whole entry partner): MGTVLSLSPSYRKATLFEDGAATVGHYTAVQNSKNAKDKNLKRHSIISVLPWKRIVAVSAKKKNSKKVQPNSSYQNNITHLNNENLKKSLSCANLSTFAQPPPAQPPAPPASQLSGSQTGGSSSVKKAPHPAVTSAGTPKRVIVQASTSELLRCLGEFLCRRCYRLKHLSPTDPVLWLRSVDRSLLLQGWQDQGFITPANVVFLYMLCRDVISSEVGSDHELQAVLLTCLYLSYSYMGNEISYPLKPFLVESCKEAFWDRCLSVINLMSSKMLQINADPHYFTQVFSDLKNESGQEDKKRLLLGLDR
SMILES,IC50 [1],"IC50 ([2]; Homo sapiens, K562, 72 h)","IC50 ([3]; Homo sapiens, HL-60, 72 h)","IC50 ([4]; Homo sapiens, THP-1, 72 h)","IC50 ([5]; Homo sapiens, MV4-11, 72 h)","IC50 ([6]; Homo sapiens, 72 h)",IC50 [7],IC50 [2],IC50 [3],IC50 [4],IC50 [5],IC50 [6],also measured
CC(C)c1n[nH]c2c(NCc3ccc(-c4ccccn4)cc3)nc(NCC(O)CO)nc12 (centres unmarked) [Compound 35],0.017 µM,0.24 µM,0.17 µM,0.26 µM,0.2 µM,0.18 µM,,,,,,,
CC(C)c1n[nH]c2c(NCc3ccc(-c4ccccn4)cc3)nc(NCCN)nc12 [Compound 40],0.038 µM,0.34 µM,0.22 µM,0.11 µM,0.25 µM,0.14 µM,0.027 µM,,,,,,
CC(C)c1n[nH]c2c(NCc3ccc(-c4ccccn4)cc3)nc(NCCCN)nc12 [Compound 41],,,,,,,,0.47 µM,0.56 µM,0.27 µM,0.35 µM,0.43 µM,
CCN(CC)CCNc1nc(NCc2ccc(-c3ccccn3)cc2)c2[nH]nc(C(C)C)c2n1 [Compound 50],,,,,,,,0.18 µM,0.14 µM,0.08 µM,0.17 µM,0.11 µM,
CC(C)c1[nH]nc2c(NCc3ccc(-c4ccccn4)cc3)nc(NCCN3CCC3)nc12 [Compound 54],0.204 µM,0.36 µM,0.29 µM,0.37 µM,0.24 µM,0.24 µM,0.322 µM,,,,,,
CC(C)c1[nH]nc2c(NCc3ccc(-c4ccccn4)cc3)nc(NCCN3CCCC3)nc12 [Compound 55],0.182 µM,,,,,,0.64 µM,,,,,,
CC(C)c1n[nH]c2c(NCc3ccc(-c4ccccn4)cc3)nc(NCC(C)N3CC3)nc12 (centres unmarked) [Compound 57],,,,,,,,0.44 µM,0.32 µM,0.29 µM,0.53 µM,0.27 µM,
CC(C)c1[nH]nc2c(NCc3ccc(-c4ccccn4)cc3)nc(N[C@H]3CC[C@H](N)CC3)nc12 [Compound 67],0.179 µM,0.59 µM,0.24 µM,0.3 µM,0.19 µM,0.23 µM,,,,,,,"IC50 [8]: 0.37 µM; IC50 [9]: 0.47 µM; IC50 [10]: 0.29 µM; IC50 [11]: 0.36 µM; EC50 ([12]; Homo sapiens, HUVEC): 69 nM; IC50 [13]: 0.5 µM"
COc1ccc(CNc2nc(NCc3ccc(-c4ccccn4)cc3)c3n[nH]c(C(C)C)c3n2)cc1 [Compound 73],4.42 µM,3.95 µM,0.78 µM,0.67 µM,0.97 µM,0.89 µM,,,,,,,"IC50 [8]: 0.99 µM; IC50 [9]: 5.3 µM; IC50 [10]: 3.94 µM; IC50 [11]: 2.62 µM; EC50 ([12]; Homo sapiens, HUVEC): 2280 nM; IC50 [13]: 0.44 µM"
CC(C)c1n[nH]c2c(NCc3ccc(-c4ccccn4)cc3)nc(NCc3ccccc3Cl)nc12 [Compound 81],,,,,,,,,,,,,EC50 [12]: 1330 nM
